Where “and” joins values, the source holds several entries; their conditions need not be identical. Equal entries are not always repeated. Structures can show the parent of a compound that is named as a salt. Where two headings read alike, the source gives them in different places.
Assays:
[1] = target: Human MOR (Homo sapiens (Human), UniProt P35372); assay: BRET G protein activation assay, human MOR in transfected HEK-293T cells; format: cell-based
Text: (§1) Transfection. Human or mouse MOR cDNA was transfected alongside GαoB with RLuc8 inserted at position 91 (GαoB-RLuc8), Gβ1 (β1), and Gγ2 fused to the full-length mVenus at its N terminus (mVenus γ2) into HEK-293T cells (5×10^6 cells/plate) in 10-cm dishes using PEI (Polysciences Inc.; Warrington, PA) in a 1:1 ratio diluted in Opti-MEM (Life Technologies Corp.; Grand Island, NY) to assay for G protein activation as described previously (Rives, M.-L. et al. J. Biol. Chem. 2012, 287, 27050-4; Negri, A.; Rives, M.-L.; Caspers, M. J. et al. J. Chem. Inf. Model. 2013, 53, 521-526). Cells were maintained in the Dulbecco's Modified Eagle Medium (high glucose #11965; Life Technologies) supplemented with 10% FBS (Premium Select, Atlanta Biologicals; Atlanta, GA) and 100 U/mL penicillin and 100 μg/mL streptomycin (#15140, Life Technologies). After 24 hours the media was changed, and the experiment was performed 24 hours later (48 hours after transfection).
(§2) BRET. Transfected cells were dissociated and resuspended in phosphate-buffered saline (PBS). Approximately 200,000 cells/well were added to a black-framed, white well 96-well plate (#60050; Perkin Elmer; Waltham, MA). The microplate was centrifuged and the cells were resuspended in PBS. Then 5 μM of the luciferase substrate coelenterazine H was added to each well for 5 minutes. Following coelenterazine H addition, ligands were added and the BRET signal was measured at 5 minutes on a PHERAstar FS plate reader. Quantification of the BRET signal required calculating the ratio of the light emitted by the energy acceptor, mVenus (510-540 nm), over the light emitted by the energy donor, RLuc8 (485 nm). […] Dose response curves were fit using three-parameter logistics equation in GraphPad Prism 6.

[2] = target: Mouse MOR (Mus musculus (Mouse), UniProt P42866); assay: BRET G protein activation assay, mouse MOR in transfected HEK-293T cells; format: cell-based; settings: mean ± SEM
Chain of Mouse MOR (P42866 whole entry, looked up): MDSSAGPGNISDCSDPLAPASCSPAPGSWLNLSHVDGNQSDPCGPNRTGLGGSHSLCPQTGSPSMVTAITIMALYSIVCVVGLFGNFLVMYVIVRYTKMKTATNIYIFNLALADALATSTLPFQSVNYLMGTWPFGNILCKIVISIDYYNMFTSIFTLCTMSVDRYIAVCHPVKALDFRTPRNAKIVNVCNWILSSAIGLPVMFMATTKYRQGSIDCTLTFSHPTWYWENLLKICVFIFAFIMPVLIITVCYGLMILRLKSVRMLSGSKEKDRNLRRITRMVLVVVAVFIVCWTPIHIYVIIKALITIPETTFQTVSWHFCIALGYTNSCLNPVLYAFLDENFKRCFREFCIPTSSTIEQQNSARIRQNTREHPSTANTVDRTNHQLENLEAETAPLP
Text: as §1, §2

[3] = Pharmacokinetics and brain distribution after single intraperitoneal dose in male C57BL/6 mice; settings: for MRT last: MRTlast
Description: For each compound, a group of twenty-four male mice were administered with a solution formulation of the drug in normal saline intraperitoneally at a dose of 10 mg/kg. Blood samples (approximately 60 μL) were collected under light isoflurane anesthesia from the retro orbital plexus at 0.08, 0.25, 0.5, 1, 2, 4, 8 and 24 hr. Plasma samples were separated by centrifugation of whole blood and stored below −70° C. until bioanalysis. Immediately after collection of blood, brain samples were collected from each mouse at 0.08, 0.25, 0.5, 1, 2, 4, 8 and 24 hr. Brain samples were homogenized using ice-cold phosphate buffer saline (pH 7.4) and homogenates were stored below −70° C. until analysis. Total homogenate volume was three times the tissue weight. All samples were processed for analysis by protein precipitation using acetonitrile (ACN) and analyzed with fit-for-purpose LC/MS/MS method (LLOQ—1.01 ng/mL in plasma and brain). Pharmacokinetic parameters were calculated using the non-compartmental analysis tool of Phoenix WinNonlin® (Version 6.3).

[4] = BRET G protein activation, HEK-293T, mean ± SEM, read-out: EC50 Human MOR
[5] = brain, i.p. 10 mg/kg, male C57BL/6 mice
[6] = i.p. 10 mg/kg, male C57BL/6 mice
[7] = male, C57BL/6, mouse, in vivo, ip, 10 mg/kg
[8] = male, C57BL/6, mouse, in vivo, ip, 10 mg/kg, brain, i.p. 10 mg/kg, male C57BL/6 mice
[9] = male, C57BL/6, mouse, in vivo, ip, 10 mg/kg, plasma, i.p. 10 mg/kg, male C57BL/6 mice

Chain of Human MOR (P35372 whole entry, the tested form may be a part): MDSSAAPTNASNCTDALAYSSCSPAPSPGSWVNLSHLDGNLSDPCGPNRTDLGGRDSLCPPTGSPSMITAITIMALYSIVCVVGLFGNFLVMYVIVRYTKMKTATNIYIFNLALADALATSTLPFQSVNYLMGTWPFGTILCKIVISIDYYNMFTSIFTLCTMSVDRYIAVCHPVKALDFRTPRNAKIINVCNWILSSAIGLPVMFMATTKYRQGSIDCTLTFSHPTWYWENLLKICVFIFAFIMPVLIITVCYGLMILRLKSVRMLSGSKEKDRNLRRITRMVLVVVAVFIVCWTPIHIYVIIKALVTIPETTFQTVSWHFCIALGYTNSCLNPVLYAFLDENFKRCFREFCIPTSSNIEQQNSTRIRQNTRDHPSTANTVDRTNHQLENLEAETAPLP

SMILES | EC50 [1, 4] [µM] | EC50 [2] [µM] | also measured
CCCCCNC1c2ccccc2N(C)S(=O)(=O)c2ccccc21 (stereo not drawn) [compound 8, 6-Methyl-11-(pentylamino)-6,11-dihydrodibenzo[c,f][1,2]thiazepine 5,5-dioxide] | < 10 | < 10 | –
CCOC(=O)CCCCNC1c2ccccc2N(C)S(=O)(=O)c2cc(Cl)ccc21 (stereo not drawn) [compound 17, Ethyl 5-((3-chloro-6-methyl-5,5-dioxido-6,11-dihydrodibenzo[c,f][1,2]thiazepin-11-yl)amino)pentanoate] | < 10 | < 10 | –
CN1c2ccccc2C(NCCCCC(=O)O)c2ccc(Cl)cc2S1(=O)=O (stereo not drawn) [compound 18, 5-((3-Chloro-6-methyl-5,5-dioxido-6,11-dihydrodibenzo[c,f][1,2]thiazepin-11-yl)amino)pentanoic acid] | < 10 | < 10 | –
CCCCCNC1c2ccccc2N(C)S(=O)(=O)c2cc(Cl)ccc21 (stereo not drawn) [compound 19, 3-Chloro-6-methyl-11-(pentylamino)-6,11-dihydrodibenzo [c,f][1,2]thiazepine 5,5-dioxide] | < 10 | < 10 | –
CNC1c2ccccc2N(C)S(=O)(=O)c2cc(Cl)ccc21 (stereo not drawn) [compound 20, 3-Chloro-6-methyl-11-(methylamino)-6,11-dihydrodibenzo [c,f][1,2]thiazepine 5,5-dioxide] | < 10 | < 10 | –
CCCNC1c2ccccc2N(C)S(=O)(=O)c2cc(Cl)ccc21 (stereo not drawn) [compound 21, 3-Chloro-6-methyl-11-(propylamino)-6,11-dihydrodibenzo [c,f][1,2]thiazepine 5,5-dioxide] | < 10 | < 10 | –
CC(C)NC1c2ccccc2N(C)S(=O)(=O)c2cc(Cl)ccc21 (stereo not drawn) [compound 22, 3-Chloro-11-(isopropylamino)-6-methyl-6,11-dihydrodibenzo [c,f][1,2]thiazepine 5,5-dioxide] | < 10 | < 10 | –
COCCCNC1c2ccccc2N(C)S(=O)(=O)c2cc(Cl)ccc21 (stereo not drawn) [compound 23, 3-Chloro-11-((3-methoxypropyl)amino)-6-methyl-6,11-dihydrodibenzo [c,f][1,2]thiazepine 5,5-dioxide] | – | – | AUClast [3, 5]: 335.03 ng·h/g; CL [3, 5]: 260.44 mL/min/kg; half-life compared with tianeptine [3, 6]: much longer half-life; systemic exposure (AUC) compared with tianeptine [3, 6]: higher systemic exposure (AUC); AUC(0-t) [3, 7]: 3060 ng·h/mL; Cmax [3, 7]: 1540 ng/mL and 378 ng/g; MRT last [3, 8]: 1.27 h; MRT last [3, 9]: 2.29 h; half-life ([3]; male, C57BL/6, mouse, in vivo, ip, 10 mg/kg, T1/2, brain, i.p. 10 mg/kg, male C57BL/6 mice): 5.12 h; half-life ([3]; male, C57BL/6, mouse, in vivo, ip, 10 mg/kg, T1/2, plasma, i.p. 10 mg/kg, male C57BL/6 mice): 3.93 h; Tmax [3, 8]: 0.08 h; Tmax [3, 9]: 0.25 h; CL ([3]; plasma, i.p. 10 mg/kg, male C57BL/6 mice): 44.27 mL/min/kg
COCCCNC1c2ccccc2N(C)S(=O)(=O)c2cc(SC)ccc21 (stereo not drawn) [compound 44, 11-((3-Methoxypropyl)amino)-6-methyl-3-(methylthio)-6,11-dihydrodibenzo[c,f][1,2]thiazepine 5,5-dioxide] | < 10 | < 10 | –
CCOCCCNC1c2ccc(Br)cc2S(=O)(=O)N(C)c2ccsc21 (stereo not drawn) [compound 73, 7-Bromo-10-((3-ethoxypropyl)amino)-4-methyl-4, 10-dihydrobenzo[f]thieno[3,2-c][1,2]thiazepine 5,5-dioxide] | < 10 | – | –
CCOC(=O)CCCCCCNC1c2ccc(Br)cc2S(=O)(=O)N(C)c2ccsc21 (stereo not drawn) [compound 74, Ethyl 7-((7-bromo-4-methyl-5,5-dioxido-4, 10-dihydrobenzo[f]thieno[3,2-c][1,2]thiazepin-10-yl)amino)heptanoate] | < 10 | – | –
COCCCNC1c2ccccc2N(C)S(=O)(=O)c2cc(OCc3ccccc3)ccc21 (stereo not drawn) [compound 75, 3-(Benzyloxy)-11-((3-methoxypropyl)amino)-6-methyl-6,11-dihydrodibenzo[c,f][1,2]thiazepine 5,5-dioxide] | > 20 | – | –
COCCCNC1c2ccc(Cl)cc2S(=O)(=O)N(C)c2ccsc21 (stereo not drawn) [compound 77, 7-Chloro-10-((3-methoxypropyl)amino)-4-methyl-4, 10-dihydrobenzo[f]thieno[3,2-c][1,2]thiazepine 5,5-dioxide] | < 10 | – | –
CCOCCCNC1c2ccc(Cl)cc2S(=O)(=O)N(C)c2ccsc21 (stereo not drawn) [compound 78, 7-Chloro-10-((3-ethoxypropyl)amino)-4-methyl-4, 10-dihydrobenzo[f]thieno[3,2-c][1,2]thiazepine 5,5-dioxide] | < 10 | – | –
CCOC(=O)CCCCCCNC1c2ccc(Cl)cc2S(=O)(=O)N(C)c2ccsc21 (stereo not drawn) [compound 79, Ethyl 7-((7-chloro-4-methyl-5,5-dioxido-4, 10-dihydrobenzo[f]thieno[3,2-c][1,2]thiazepin-10-yl)amino)heptanoate] | < 10 | – | –
CN1c2ccccc2C(NCCCCCCC(=O)O)c2ccc(I)cc2S1(=O)=O (stereo not drawn) [compound 84, 7-((3-Iodo-6-methyl-5,5-dioxido-6,11-dihydrodibenzo [c,f][1,2]thiazepin-11-yl)amino)heptanoic acid hydrochloride salt] | – | – | EC50 [1]: 0.04 µM

From patent publication US20240092802A1, “MU-OPIOID RECEPTOR AGONISTS AND USES THEREFOR” (Kures, Inc., priority 2020, published 2024)
